Assay results: PMC8643917, “982. Effect of Hepatic Impairment on the Safety and Pharmacokinetics of Rezafungin” (Open Forum Infectious Diseases, 2021)
Where two headings read alike, the source gives them in different places. *1 amine or outer side, *2 acyl side, *3 side chain or, on linkers, in order; H or OH if unused. Where a SMILES comes first, the peptide text is derived from it. Bridges are numbered along the chain shown (N, C = ends). [ ]: non-standard residue; d: D form. The star is where a group is joined. Orn(4R-OH,5R-OCH2CH2NMe3+) = C[N+](C)(C)CCO[C@@H](N[*:3])[C@H](O)C[C@H](N[*:1])C(=O)[*:2]; pTerphenylCO(4''-OnC5H11) = CCCCCOc1ccc(-c2ccc(-c3ccc(C(=O)*)cc3)cc2)cc1; hTyr(3S-OH,4S-OH) = N[C@H](C(=O)O)[C@H](O)[C@@H](O)c1ccc(O)cc1; Pro(3S-OH,4S-Me) = C[C@H]1CN[C@H](C(=O)O)[C@H]1O; Hyp = O=C(O)[C@@H]1C[C@@H](O)CN1

Legend:
[1] = Plasma pharmacokinetics of rezafungin after a single 400-mg IV 1-hour infusion, open-label single-dose study, non-compartmental analysis; type: in vivo, human; conditions: for half-life: n = 8, plasma sampling through 336 hours postdose, non-compartmental analysis
From the text: (§1) Abstract Background Rezafungin (RZF) is a novel echinocandin antifungal being developed for treatment of candidemia and invasive candidiasis, and for prevention of invasive fungal diseases among immunosuppressed patients. In the Phase 2 and Phase 3 treatment trials of rezafungin compared with caspofungin (STRIVE [NCT02734862] and ReSTORE [NCT03667690], respectively), patients with severe hepatic impairment (HI) were not included due to lack of caspofungin data in this population. Rezafungin was previously evaluated in patients with moderate hepatic impairment. Here we report an open-label, single-dose study on rezafungin in patients with HI (Child-Pugh class C). Methods To investigate the safety, tolerability, and pharmacokinetics (PK) of RZF in subjects with HI and healthy subjects (HS), 8 subjects with HI and 8 HS matched for age, sex, and body mass index (BMI) were enrolled and received a single 400-mg intravenous 1-hour infusion of RZF. Plasma PK sampling was performed at various time points through 336 hours postdose. RZF PK parameters were derived using non-compartmental analysis. Safety was assessed throughout the study. Results The majority of the HI subjects were White (87.5%) and male (75%) while equal distribution between White and Black or African American was observed among HS (50%) and 75% were male. The mean age of HI subjects was 58 years (range, 41–68 years) and 56.6 years (range, 50–61 years) for the HS. Mean BMI was 29.7 kg/m^2 (range, 24.5–34.3 kg/m^2) for HI subjects and 29.7 kg/m^2 (range, 25.4–34.2 kg/m^2) for the HS. […] Three HI subjects had one adverse event (AE) each (bronchitis, worsening hepatic encephalopathy, hyponatremia), all moderate in severity; one HS had 1 AE of infusion site infiltration mild in severity. […] Table 1. Plasma Rezafungin PK Parameter Estimates in Subjects with Severe Hepatic Impairment or Normal Hepatic Function After a Single 400 mg IV Infusion of Rezafungin Figure 1. […] These findings support no RZF dose adjustment in subjects with severe hepatic impairment. Disclosures Voon Ong, PhD, Cidara Therapeutics (Employee, Shareholder) Taylor Sandison, MD, MPH, Cidara Therapeutics (Employee, Shareholder) Rebeca M. Melara, M.S., Altasciences (contract research organization) (Employee) Thomas C. Marbury, MD, Orlando Clinical Research Center (Employee, Other Financial or Material Support, Equity owner of Orlando Clinical Research Center) Alena Jandourek, MD, Cidara therapeutics (Consultant) Shawn Flanagan, PhD, Cidara Therapeutics (Employee, Shareholder)

[2] = Safety and tolerability of a single 400-mg IV infusion of rezafungin in subjects with severe hepatic impairment and matched healthy subjects; type: in vivo, human
From the text: as §1

[3] = HI (Child-Pugh class C, n = 8) versus matched HS (n = 8), plasma, reduction

Q: With `CCCCCOc1ccc(-c2ccc(-c3ccc(C(=O)N[C@H]4C[C@@H](O)[C@@H](OCC[N+](C)(C)C)NC(=O)[C@@H]5[C@@H](O)[C@@H](C)CN5C(=O)[C@H]([C@@H](C)O)NC(=O)[C@H]([C@H](O)[C@@H](O)c5ccc(O)cc5)NC(=O)[C@@H]5C[C@@H](O)CN5C(=O)[C@H]([C@@H](C)O)NC4=O)cc3)cc2)cc1` [RZF, Rezafungin] ({pTerphenylCO(4''-OnC5H11)}-[Orn(4R-OH,5R-OCH2CH2NMe3+)]T[Hyp][hTyr(3S-OH,4S-OH)]T[Pro(3S-OH,4S-Me)]; lactam 1-C) as the compound, how does the “RZF exposure (AUC) in subjects with HI, lower than that in HS” value [1, 3] read?
A: ~ 30%

Q: What about the “RZF exposure (Cmax) in subjects with HI, lower than that in HS” value [1, 3] of the same compound?
A: ~ 30%

Q: And the half-life ([1]; both sexes, human, subjects with severe hepatic impairment (HI, Child-Pugh class C), read-out: half-life (converted))?
A: 121 h

Q: And the half-life ([1]; healthy subjects (HS) matched for age, sex and BMI)?
A: 124 h

Q: And the “adverse events considered related to RZF” value ([2]; HI and HS subjects, all AEs resolved or resolving by the end of the study)?
A: No AEs were considered related to RZF

Q: What about the tolerability ([2]; HI subjects (Child-Pugh class C)) of the same compound?
A: well tolerated

Q: And the “number of subjects with an adverse event (AE)” value ([2]; HI subjects (n = 8), one AE each (bronchitis, worsening hepatic encephalopathy, hyponatremia), all moderate in severity)?
A: Three

Q: What about the “number of subjects with an adverse event (AE)” value ([2]; healthy subjects (n = 8), 1 AE of infusion site infiltration, mild in severity) of the same compound?
A: one
